According to the NIST ThermoML archive (doi:10.1016/j.jct.2006.05.008):
“And” between values parts separate entries of the source, which are not always exact repeats. Equal values may be shown once.

Test: molar heat capacity at constant pressure
Conditions: 101.33 kPa

CCC[n+]1ccn(C)c1.[Br-] [1-methyl-3-propylimidazolium bromide]
Conditions | molar heat capacity at constant pressure
146.32 K, Glass, Small (less than 1 g) adiabatic calorimetry | 140.69 J/K/mol
146.55 K, Crystal, Vacuum adiabatic calorimetry | 133.11 J/K/mol
146.9 K, Crystal, Vacuum adiabatic calorimetry | 133.3 J/K/mol
147.92 K, Crystal, Vacuum adiabatic calorimetry | 133.83 J/K/mol
148.32 K, Metastable crystal, Small (less than 1 g) adiabatic calorimetry | 137.4 J/K/mol
148.96 K, Crystal, Vacuum adiabatic calorimetry | 134.32 J/K/mol
149.12 K, Glass, Small (less than 1 g) adiabatic calorimetry | 142.33 J/K/mol
149.3 K, Crystal, Vacuum adiabatic calorimetry | 134.52 J/K/mol
150.68 K, Crystal, Vacuum adiabatic calorimetry | 135.21 J/K/mol
150.83 K, Metastable crystal, Small (less than 1 g) adiabatic calorimetry | 138.65 J/K/mol
151.02 K, Crystal, Vacuum adiabatic calorimetry | 135.37 J/K/mol
151.92 K, Glass, Small (less than 1 g) adiabatic calorimetry | 143.94 J/K/mol
152.06 K, Crystal, Vacuum adiabatic calorimetry | 135.89 J/K/mol
153.09 K, Crystal, Vacuum adiabatic calorimetry | 136.42 J/K/mol
153.33 K, Metastable crystal, Small (less than 1 g) adiabatic calorimetry | 139.92 J/K/mol
153.43 K, Crystal, Vacuum adiabatic calorimetry | 136.63 J/K/mol
153.5 K, Glass, Small (less than 1 g) adiabatic calorimetry | 144.83 J/K/mol
154.73 K, Glass, Small (less than 1 g) adiabatic calorimetry | 145.57 J/K/mol
154.81 K, Crystal, Vacuum adiabatic calorimetry | 137.37 J/K/mol
155.15 K, Crystal, Vacuum adiabatic calorimetry | 137.48 J/K/mol
155.84 K, Metastable crystal, Small (less than 1 g) adiabatic calorimetry | 141.25 J/K/mol
155.92 K, Glass, Small (less than 1 g) adiabatic calorimetry | 146.2 J/K/mol
156.19 K, Crystal, Vacuum adiabatic calorimetry | 138.07 J/K/mol
157.22 K, Crystal, Vacuum adiabatic calorimetry | 138.55 J/K/mol
157.53 K, Glass, Small (less than 1 g) adiabatic calorimetry | 147.21 J/K/mol
157.57 K, Crystal, Vacuum adiabatic calorimetry | 138.81 J/K/mol
158.35 K, Metastable crystal, Small (less than 1 g) adiabatic calorimetry | 142.5 J/K/mol
158.39 K, Glass, Small (less than 1 g) adiabatic calorimetry | 147.68 J/K/mol
158.74 K, Metastable crystal, Small (less than 1 g) adiabatic calorimetry | 142.49 J/K/mol
158.95 K, Crystal, Vacuum adiabatic calorimetry | 139.5 J/K/mol
159.29 K, Crystal, Vacuum adiabatic calorimetry | 139.64 J/K/mol
160.32 K, Crystal, Vacuum adiabatic calorimetry | 140.24 J/K/mol
160.34 K, Glass, Small (less than 1 g) adiabatic calorimetry | 148.83 J/K/mol
160.85 K, Glass, Small (less than 1 g) adiabatic calorimetry | 149.02 J/K/mol
160.86 K, Metastable crystal, Small (less than 1 g) adiabatic calorimetry | 143.76 J/K/mol
161.31 K, Metastable crystal, Small (less than 1 g) adiabatic calorimetry | 143.83 J/K/mol
161.35 K, Crystal, Vacuum adiabatic calorimetry | 140.75 J/K/mol
161.7 K, Crystal, Vacuum adiabatic calorimetry | 141.04 J/K/mol
163.07 K, Crystal, Vacuum adiabatic calorimetry | 141.95 J/K/mol
163.14 K, Glass, Small (less than 1 g) adiabatic calorimetry | 150.42 J/K/mol
163.31 K, Glass, Small (less than 1 g) adiabatic calorimetry | 150.41 J/K/mol
163.36 K, Metastable crystal, Small (less than 1 g) adiabatic calorimetry | 145.06 J/K/mol
163.42 K, Crystal, Vacuum adiabatic calorimetry | 142.16 J/K/mol
163.82 K, Metastable crystal, Small (less than 1 g) adiabatic calorimetry | 145.08 J/K/mol
164.45 K, Crystal, Vacuum adiabatic calorimetry | 143.11 J/K/mol
165.48 K, Crystal, Vacuum adiabatic calorimetry | 144.27 J/K/mol
165.77 K, Glass, Small (less than 1 g) adiabatic calorimetry | 151.85 J/K/mol
165.82 K, Crystal, Vacuum adiabatic calorimetry | 145.11 J/K/mol
165.87 K, Metastable crystal, Small (less than 1 g) adiabatic calorimetry | 146.32 J/K/mol
165.96 K, Glass, Small (less than 1 g) adiabatic calorimetry | 152.04 J/K/mol
166.33 K, Metastable crystal, Small (less than 1 g) adiabatic calorimetry | 146.42 J/K/mol
167.19 K, Crystal, Vacuum adiabatic calorimetry | 146.62 J/K/mol
167.53 K, Crystal, Vacuum adiabatic calorimetry | 147.09 J/K/mol
168.23 K, Glass, Small (less than 1 g) adiabatic calorimetry | 153.27 J/K/mol
168.38 K, Metastable crystal, Small (less than 1 g) adiabatic calorimetry | 147.66 J/K/mol
168.56 K, Crystal, Vacuum adiabatic calorimetry | 147.58 J/K/mol
168.77 K, Glass, Small (less than 1 g) adiabatic calorimetry | 153.64 J/K/mol
168.85 K, Metastable crystal, Small (less than 1 g) adiabatic calorimetry | 147.67 J/K/mol
169.59 K, Crystal, Vacuum adiabatic calorimetry | 148.31 J/K/mol
169.93 K, Crystal, Vacuum adiabatic calorimetry | 148.36 J/K/mol
170.69 K, Glass, Small (less than 1 g) adiabatic calorimetry | 154.76 J/K/mol
170.88 K, Metastable crystal, Small (less than 1 g) adiabatic calorimetry | 149.09 J/K/mol
171.3 K, Crystal, Vacuum adiabatic calorimetry | 149.09 J/K/mol
171.36 K, Metastable crystal, Small (less than 1 g) adiabatic calorimetry | 149.04 J/K/mol
171.57 K, Glass, Small (less than 1 g) adiabatic calorimetry | 155.3 J/K/mol
171.66 K, Crystal, Vacuum adiabatic calorimetry | 149.38 J/K/mol
172.67 K, Crystal, Vacuum adiabatic calorimetry | 149.83 J/K/mol
173.15 K, Glass, Small (less than 1 g) adiabatic calorimetry | 156.22 J/K/mol
173.73 K, Crystal, Vacuum adiabatic calorimetry | 150.42 J/K/mol
173.86 K, Metastable crystal, Small (less than 1 g) adiabatic calorimetry | 151.16 J/K/mol
174.05 K, Crystal, Vacuum adiabatic calorimetry | 150.49 J/K/mol
174.37 K, Glass, Small (less than 1 g) adiabatic calorimetry | 156.97 J/K/mol
175.42 K, Crystal, Vacuum adiabatic calorimetry | 151.1 J/K/mol
175.61 K, Glass, Small (less than 1 g) adiabatic calorimetry | 157.68 J/K/mol
175.8 K, Crystal, Vacuum adiabatic calorimetry | 151.34 J/K/mol
176.31 K, Metastable crystal, Small (less than 1 g) adiabatic calorimetry | 156.29 J/K/mol
176.79 K, Crystal, Vacuum adiabatic calorimetry | 151.84 J/K/mol
177.16 K, Glass, Small (less than 1 g) adiabatic calorimetry | 158.66 J/K/mol
177.87 K, Crystal, Vacuum adiabatic calorimetry | 152.35 J/K/mol
178.06 K, Glass, Small (less than 1 g) adiabatic calorimetry | 159.2 J/K/mol
178.16 K, Crystal, Vacuum adiabatic calorimetry | 152.6 J/K/mol
178.77 K, Metastable crystal, Small (less than 1 g) adiabatic calorimetry | 157.34 J/K/mol
179.54 K, Crystal, Vacuum adiabatic calorimetry | 153.2 J/K/mol
179.94 K, Crystal, Vacuum adiabatic calorimetry | 153.35 J/K/mol
179.96 K, Glass, Small (less than 1 g) adiabatic calorimetry | 160.43 J/K/mol
180.51 K, Glass, Small (less than 1 g) adiabatic calorimetry | 160.72 J/K/mol
180.91 K, Crystal, Vacuum adiabatic calorimetry | 153.97 J/K/mol
181.24 K, Metastable crystal, Small (less than 1 g) adiabatic calorimetry | 158.54 J/K/mol
182.01 K, Crystal, Vacuum adiabatic calorimetry | 154.36 J/K/mol
182.28 K, Crystal, Vacuum adiabatic calorimetry | 154.57 J/K/mol
182.76 K, Glass, Small (less than 1 g) adiabatic calorimetry | 162.21 J/K/mol
182.96 K, Glass, Small (less than 1 g) adiabatic calorimetry | 162.2 J/K/mol
183.71 K, Metastable crystal, Small (less than 1 g) adiabatic calorimetry | 159.86 J/K/mol
184.08 K, Crystal, Vacuum adiabatic calorimetry | 155.44 J/K/mol
184.32 K, Crystal, Vacuum adiabatic calorimetry | 155.34 J/K/mol
185.31 K, Crystal, Vacuum adiabatic calorimetry | 156.02 J/K/mol
185.4 K, Glass, Small (less than 1 g) adiabatic calorimetry | 163.81 J/K/mol
185.55 K, Glass, Small (less than 1 g) adiabatic calorimetry | 163.97 J/K/mol
186.15 K, Crystal, Vacuum adiabatic calorimetry | 156.46 J/K/mol
186.18 K, Metastable crystal, Small (less than 1 g) adiabatic calorimetry | 161.18 J/K/mol
186.86 K, Crystal, Vacuum adiabatic calorimetry | 156.54 J/K/mol
187 K, Crystal, Vacuum adiabatic calorimetry | 156.84 J/K/mol
187.85 K, Glass, Small (less than 1 g) adiabatic calorimetry | 165.5 J/K/mol
188.22 K, Crystal, Vacuum adiabatic calorimetry | 157.39 J/K/mol
188.33 K, Glass, Small (less than 1 g) adiabatic calorimetry | 165.89 J/K/mol
188.37 K, Crystal, Vacuum adiabatic calorimetry | 157.44 J/K/mol
188.65 K, Metastable crystal, Small (less than 1 g) adiabatic calorimetry | 162.48 J/K/mol
189.74 K, Crystal, Vacuum adiabatic calorimetry | 158.15 J/K/mol and 158.27 J/K/mol
190.29 K, Crystal, Vacuum adiabatic calorimetry | 158.43 J/K/mol
190.29 K, Glass, Small (less than 1 g) adiabatic calorimetry | 167.25 J/K/mol
190.58 K, Crystal, Vacuum adiabatic calorimetry | 158.53 J/K/mol
191.11 K, Crystal, Vacuum adiabatic calorimetry | 158.93 J/K/mol
191.12 K, Glass, Small (less than 1 g) adiabatic calorimetry | 167.98 J/K/mol
191.12 K, Metastable crystal, Small (less than 1 g) adiabatic calorimetry | 163.72 J/K/mol
192.28 K, Crystal, Vacuum adiabatic calorimetry | 159.62 J/K/mol
192.36 K, Crystal, Vacuum adiabatic calorimetry | 159.59 J/K/mol
192.48 K, Crystal, Vacuum adiabatic calorimetry | 159.63 J/K/mol
192.74 K, Glass, Small (less than 1 g) adiabatic calorimetry | 168.95 J/K/mol
193.11 K, Crystal, Vacuum adiabatic calorimetry | 160.08 J/K/mol
193.58 K, Metastable crystal, Small (less than 1 g) adiabatic calorimetry | 165.05 J/K/mol
193.85 K, Crystal, Vacuum adiabatic calorimetry | 160.55 J/K/mol
193.9 K, Glass, Small (less than 1 g) adiabatic calorimetry | 169.91 J/K/mol
194.35 K, Crystal, Vacuum adiabatic calorimetry | 160.92 J/K/mol
195.18 K, Crystal, Vacuum adiabatic calorimetry | 161.48 J/K/mol
195.19 K, Glass, Small (less than 1 g) adiabatic calorimetry | 171.15 J/K/mol
195.22 K, Crystal, Vacuum adiabatic calorimetry | 161.53 J/K/mol
196.05 K, Metastable crystal, Small (less than 1 g) adiabatic calorimetry | 166.26 J/K/mol
196.59 K, Crystal, Vacuum adiabatic calorimetry | 162.52 J/K/mol
196.68 K, Glass, Small (less than 1 g) adiabatic calorimetry | 172.49 J/K/mol
197.24 K, Crystal, Vacuum adiabatic calorimetry | 163.14 J/K/mol
197.62 K, Glass, Small (less than 1 g) adiabatic calorimetry | 173.39 J/K/mol
197.95 K, Crystal, Vacuum adiabatic calorimetry | 163.6 J/K/mol
198.51 K, Crystal, Vacuum adiabatic calorimetry | 164.2 J/K/mol
198.51 K, Metastable crystal, Small (less than 1 g) adiabatic calorimetry | 167.53 J/K/mol
199.3 K, Crystal, Vacuum adiabatic calorimetry | 164.84 J/K/mol
